Reference: US9006396B2, “CsPCNA isoform antibodies and uses thereof” (priority 2005, dated 2015)
Where no end group is shown, it is not given here.

Columns and labels:
[1] = target: Ab126 capture of the csPCNA isoform present in recombinant PCNA (Homo sapiens, UniProt P12004); assay: Sandwich ELISA with Ab126 capture antibody and competing peptide; type: binding; details: Ab126 capture 1 μg/well, C20 detection; peptide 0.024-2400 ng/well; FIG. 15B
Experimental: (§1) A sandwich ELISA was performed in which either the csPCNA specific Ab126 antibody (1 μg/well) or the non-specific PCNA antibody C20 (1 μg/well) was immobilized to the ELISA plate, and used to capture the recombinant PCNA used in the assay. Residual binding sites on the ELISA plate were blocked with BSA, and recombinant PCNA was incubated with the immobilized capture antibody in the presence of a range of concentrations of competing peptide (UMPB6—(0.024 ng/well-2400 ng/well)). After washing off unbound PCNA, the bound protein was detected with the C20 antibody in the first case, and with Ab126 in the second case. These detection antibodies were added to each well of the ELISA plate. The appropriate alkaline phosphatase conjugated secondary anti-rabbit or anti-goat IgG antibody was incubated with the bound antibody in each of the ELISA plate wells, and after washing away non-specifically bound antibody with PBS-0.05% Tween 20, the amount of detection antibody bound to the captured PCNA was determined by incubating the secondary antibody remaining in each well with 1 mg/ml of p-nitrophenolphosphate for 30 minutes.

[2] = target: C20 antibody capture of recombinant PCNA (Homo sapiens, UniProt P12004); assay: Sandwich ELISA with C20 capture antibody and competing peptide; type: binding; details: C20 capture 1 μg/well, Ab126 detection; peptide 0.024-2400 ng/well; FIG. 15B
Experimental: as §1

Ab126 capture of the csPCNA isoform present in recombinant PCNA, sequence (P12004 whole entry, canonical isoform): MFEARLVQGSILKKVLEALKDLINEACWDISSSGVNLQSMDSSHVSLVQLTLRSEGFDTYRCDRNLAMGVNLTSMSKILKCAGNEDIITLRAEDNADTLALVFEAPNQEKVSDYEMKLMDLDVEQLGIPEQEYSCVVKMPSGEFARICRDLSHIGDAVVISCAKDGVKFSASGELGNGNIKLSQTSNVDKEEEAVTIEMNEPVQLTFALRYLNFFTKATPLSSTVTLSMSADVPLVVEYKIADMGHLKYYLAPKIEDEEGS
C20 antibody capture of recombinant PCNA, sequence (P12004 whole entry): as the sequence (P12004 whole entry, canonical isoform) above

**Q.** How did the “apparent IC50 for competing for the capture antibody” value [1] turn out when LGIPEQEY [UMPB6] was run?
**A.** The value was “over 1 μg/well”.

**Q.** And the “effect on ability of C20 antibody to capture recombinant PCNA” value [2]?
**A.** Its value is “no detectable effect”.
